This is an account of results in patent US12077531B2, “Imidazopyridinone compound” (KISSEI PHARMACEUTICAL CO., LTD., priority 2018, dated 2024).

pIC50: −log10 of the molar value. Read-outs that look alike come from different tables or passages of the source.

Data set [1] deals with human PHD2184-418 (Homo sapiens (Human), UniProt Q9GZT9). Put plainly: PHD2 inhibitory test (fluorescence polarization, binding between PHD2 and HIF-1α). The conditions noted are these: human PHD2184-418, FITC-labeled HIF-1α556-574, 2 μM 2-oxoglutarate, 37° C. 60 minutes. The method, boiled down: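 N-His-tagged human PHD2 (residues 184–418, E. coli-expressed) was preincubated with compound, then FITC-Ahx-HIF-1α556-574 peptide was added in pH 7.4 HEPES buffer with 10 μM MnCl2 and 2 μM 2-oxoglutarate. After 60 min at 37 °C, fluorescence polarization (ex 470/em 530 nm) was read. Inhibition was calculated against compound-free wells.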
human PHD2184-418, sequence (Q9GZT9 184-418): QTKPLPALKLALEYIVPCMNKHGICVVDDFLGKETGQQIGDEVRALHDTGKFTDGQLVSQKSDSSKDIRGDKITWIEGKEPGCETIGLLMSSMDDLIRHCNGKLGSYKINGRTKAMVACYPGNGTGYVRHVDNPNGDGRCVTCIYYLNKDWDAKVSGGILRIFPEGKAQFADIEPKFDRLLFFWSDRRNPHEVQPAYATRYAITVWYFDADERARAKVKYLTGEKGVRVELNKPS
In general terms: Fluorescence polarisation rises when a labelled molecule tumbles more slowly, as on binding a larger partner.

In data set [2] the test system is TNBS induced colitis model rat. Put plainly: Therapeutic effect in TNBS induced colitis model rat (intestinal permeability of FITC). In kind it is in vivo. The conditions noted are these: po, 72 h, 3 mg/kg orally once a day for 3 days, SD rats, mean, test compounds-free group 0, TNBS-untreated group 100, read-out: Inhibition (%): suppressive rate on the intestinal permeability. The method, then: Test Example 2 Therapeutic Effect in Colitis Model
(1) TNBS Induced Colitis Model Rat
SD rats: 8-weeks-old male SLC (Japan SLC) were used. Under pentobarbital anesthesia, 300 μL of TNBS (28 mg/mL) prepared by 50% ethanol was administered at a point 8 cm from anus in large intestine to cause inflammation. To the solvent-treated group was administrated 300 μL of 50% ethanol. Animals were fasted for 48 hours prior to administration of TNBS. Test compounds (3 mg/kg) prepared by 0.05% methylcellulose solution were orally administered once a day from next day, and it was administered for a total of 3 days. After administering for 3 days, 50 mg/kg FITC was orally administered at 4 hours after administration. Blood samples were collected from jugular vein under isoflurane anesthesia after 4 hours. The serum was centrifuged and fluorescence intensity was detected by PHERAstar FSX (BMG Labtech) to measure the concentration of FITC permeating into circulating blood through the mesentery. The suppressive rate on the intestinal permeability of test compounds was calculated based on the value of test compounds-free group as 0 and the value of TNBS-untreated group as 100.

Data set [3] in a line: Rat PK study: concentration of compounds in large intestine tissue and plasma. The conditions noted are these: male, SD, 3 mg/kg oral; for Kp at 8 h: large intestine tissue / plasma, read-out: C/P: ratio of the above Colon and Plasma; for AUC / Cmax: non-fasted; for AUC: read-out: AUC: area under the plasma test compound concentration-time curve (converted); for Cmax: read-out: Cmax: maximum plasma concentration of test compounds in the case of oral administration. It counts as in vivo. The method, then: Test Example 3 Concentration of Compounds in Large Intestine Tissue
Test compounds (3 mg/kg/5 mL) prepared by 0.05% methylcellulose were orally administered to non-fasted rats (SD, 8-weeks-old, male, Japan SLC). Blood samples were collected from jugular vein at 0.25, 0.5, 1, 2, 4, 6 and 8 hours after the administration. Laparotomy was performed under isoflurane anesthesia and large intestine was isolated. Collected distal large intestine (about 5 cm) was cut open, and then the large intestine was washed with saline on a dish. After washing, the large intestine was minced by a small scissors. About 150 mg thereof was moved to tube. To the tube was added 100 μL of saline, the mixture was homogenized using shake master (1000 rpm×30 minutes). Samples were prepared by the addition with quadruple volume of saline as final volume. The concentrations of the test compound in large intestine tissue and plasma were measured through a quantitative analysis using liquid chromatography-mass spectrometry (LC/MS).

Where [4] appears, read: large intestine tissue (distal large intestine), read-out: Colon: concentrations of the test compound in large intestine tissue after 8 hours.
Setting [5] is: plasma, read-out: Plasma: plasma test compound concentration after 8 hours.

Molecule `Cn1ccnc1CN1CC[C@H](n2c(=O)n(-c3ccc(-c4ccc(C(=O)O)cc4)cc3O)c3cccnc32)C1` [Example 39, (S)-3′-Hydroxy-4′-(3-(1-((1-methyl-1H-imidazol-2-yl)methyl)pyrrolidin-3-yl)-2-oxo-2,3-dihydro-1H-imidazo[4,5-b]pyridin-1-yl)-[1,1′-biphenyl]-4-carboxylic acid] gave a negative logarithm of the IC50 (pIC50) in data set [1] of 6.47. Also, the inhibition in vivo at 3 mg/kg in data set [2] came to 95%. Besides, the figures for the concentration at 8 h in data set [3] (setting [4]) and in data set [3] (setting [5]) were 214 ng/g and 3 ng/mL, respectively. Besides, the Kp at 8 h in data set [3] was determined as 71. The AUC in data set [3] (plasma) was 34.8 ng·h/mL. The Cmax in data set [3] (plasma) was 7 ng/mL.
In data set [1], `Cn1ccnc1CN1CC[C@H](n2c(=O)n(-c3ccc(-c4ccc(C(=O)O)cc4)c(O)c3)c3cccnc32)C1` [Example 40, (S)-2′-Hydroxy-4′-(3-(1-((1-methyl-1H-imidazol-2-yl)methyl)pyrrolidin-3-yl)-2-oxo-2,3-dihydro-1H-imidazo[4,5-b]pyridin-1-yl)-[1,1′-biphenyl]-4-carboxylic acid] gave a pIC50 of 6.12. The inhibition in vivo at 3 mg/kg in data set [2] came to 84%. The values for the concentration at 8 h in data set [3] (setting [4]) and in data set [3] (setting [5]) were 209 ng/g and below 1 ng/mL, respectively. In data set [3], the Kp at 8 h is above 209. Further, in data set [3] (plasma), the Cmax was below 1 ng/mL.
In turn, `Cn1ccnc1CN1CC[C@H](n2c(=O)n(-c3ccc(-c4ccc(C(=O)O)cc4)nc3)c3cccnc32)C1` [Example 41, (S)-4-(5-(3-(1-((1-Methyl-1H-imidazol-2-yl)methyl)pyrrolidin-3-yl)-2-oxo-2,3-dihydro-1H-imidazo[4,5-b]pyridin-1-yl)pyridin-2-yl)benzoic acid] showed a negative logarithm of the IC50 (pIC50) in data set [1] of 5.84. In addition, the inhibition in vivo at 3 mg/kg in data set [2] amounted to 74%.
Regarding `O=C(O)c1ccc(-c2ccc(-n3c(=O)n([C@H]4CCN(Cc5cc(C(=O)O)ccn5)C4)c4ncccc43)cc2)cc1` [Example 43, (S)-2-((3-(1-(4′-Carboxy-[1,1′-biphenyl]-4-yl)-2-oxo-1,2-dihydro-3H-imidazo[4,5-b]pyridin-3-yl)pyrrolidin-1-yl)methyl)isonicotinic acid], the negative-log IC50 (pIC50) in data set [1] was 6.70. Besides, the inhibition in vivo at 3 mg/kg in data set [2] was 59%. Besides, the concentration at 8 h in data set [3] (setting [4]) came to 84 ng/g; in data set [3] (setting [5]) it was 2 ng/mL. In addition, in data set [3], the Kp at 8 h was found to be 42. Further, in data set [3] (plasma), the AUC is 35.2 ng·h/mL. Besides, the Cmax in data set [3] (plasma) was 8 ng/mL.
`O=C(O)c1ccc(-c2ccc(-n3c(=O)n([C@H]4CCN(Cc5cc(C(=O)O)ccn5)C4)c4ncccc43)cc2O)cc1` [Example 45, (S)-2-((3-(1-(4′-Carboxy-2-hydroxy-[1,1′-biphenyl]-4-yl)-2-oxo-1,2-dihydro-3H-imidazo[4,5-b]pyridin-3-yl)pyrrolidin-1-yl)methyl)isonicotinic acid]: the pIC50 in data set [1] was 6.57. Further, the inhibition in vivo at 3 mg/kg in data set [2] came out at 51%. In addition, the concentration at 8 h in data set [3] (setting [4]) turned out to be 87 ng/g. In data set [3], the Kp at 8 h is above 87. For the same molecule, in data set [3] (setting [5]), the concentration at 8 h is below 1 ng/mL. Besides, in data set [3] (plasma), the AUC was 6.68 ng·h/mL and the Cmax turned out to be 2 ng/mL.
As to `O=C(O)c1ccc(-c2ccc(-n3c(=O)n([C@H]4CCN(Cc5cc(C(=O)O)ccn5)C4)c4ncccc43)cn2)cc1` [Example 46, (S)-2-((3-(1-(6-(4-Carboxyphenyl)pyridin-3-yl)-2-oxo-1,2-dihydro-3H-imidazo[4,5-b]pyridin-3-yl)pyrrolidin-1-yl)methyl)isonicotinic acid], the pIC50 in data set [1] is 6.82. Also, in data set [2], the inhibition in vivo at 3 mg/kg was determined as 63%. In addition, the concentration at 8 h in data set [3] (setting [4]) was determined as 174 ng/g. Besides, in data set [3], the Kp at 8 h was above 174. For the same molecule, in data set [3] (setting [5]), the concentration at 8 h is below 1 ng/mL. In data set [3] (plasma), the AUC was 5.23 ng·h/mL and the Cmax is 3 ng/mL.
In data set [1], `Cn1ccnc1CN1CC[C@H](n2c(=O)n(-c3ccc(-c4ccc(C(=O)O)cc4)cc3)c3cccnc32)C1` [Example 47, (S)-4′-(3-(1-((1-Methyl-1H-imidazol-2-yl)methyl)pyrrolidin-3-yl)-2-oxo-2,3-dihydro-1H-imidazo[4,5-b]pyridin-1-yl)-[1,1′-biphenyl]-4-carboxylic acid] showed a negative logarithm of the IC50 (pIC50) of 6.39. Moreover, in data set [2], the inhibition in vivo at 3 mg/kg came out at 85%. Besides, in data set [3] (setting [4]), the concentration at 8 h worked out at 317 ng/g. Further, the Kp at 8 h in data set [3] is 18. Also, in data set [3] (setting [5]), the concentration at 8 h was 18 ng/mL. In data set [3] (plasma), the AUC was 334 ng·h/mL and the Cmax came out at 60 ng/mL.
`Cn1c(C(=O)O)cnc1CN1CC[C@H](n2c(=O)n(-c3ccc(C(=O)NCC(=O)O)nc3)c3cccnc32)C1` [Example 78, (S)-2-((3-(1-(6-((Carboxymethyl)carbamoyl)pyridin-3-yl)-2-oxo-1,2-dihydro-3H-imidazo[4,5-b]pyridin-3-yl)pyrrolidin-1-yl)methyl)-1-methyl-1H-imidazole-5-carboxylic acid] showed a negative logarithm of the IC50 (pIC50) in data set [1] of 4.96.
In data set [1], `Cn1c(C#N)cnc1CN1CC[C@H](n2c(=O)n(-c3ccc(-c4ccncc4)cc3)c3cccnc32)C1` [Example 80, (S)-1-Methyl-2-((3-(2-oxo-1-(4-(pyridin-4-yl)phenyl)-1,2-dihydro-3H-imidazo[4,5-b]pyridin-3-yl)pyrrolidin-1-yl)methyl)-1H-imidazole-5-carbonitrile] showed a pIC50 of 4.18.
In turn, `Cn1c(C(=O)O)cnc1CN1CC[C@H](n2c(=O)n(-c3ccc(-c4ccc(O)cc4)cc3)c3cccnc32)C1` [Example 82, (S)-2-((3-(1-(4′-Hydroxy-[1,1′-biphenyl]-4-yl)-2-oxo-1,2-dihydro-3H-imidazo[4,5-b]pyridin-3-yl)pyrrolidin-1-yl)methyl)-1-methyl-1H-imidazole-5-carboxylic acid] had a pIC50 in data set [1] of 6.89. In addition, the inhibition in vivo at 3 mg/kg in data set [2] came out at 96%.
With `Cn1c(C(=O)O)cnc1CN1CC[C@H](n2c(=O)n(-c3ccc(-c4ccc(C(=O)O)cc4)nc3)c3cccnc32)C1` [Example 85, (S)-2-((3-(1-(6-(4-Carboxyphenyl)pyridin-3-yl)-2-oxo-1,2-dihydro-3H-imidazo[4,5-b]pyridin-3-yl)pyrrolidin-1-yl)methyl)-1-methyl-1H-imidazole-5-carboxylic acid], in data set [2], the inhibition in vivo at 3 mg/kg stood at 101%. Further, the concentration at 8 h in data set [3] (setting [4]) is 164 ng/g; in data set [3] (setting [5]), below 1 ng/mL. Further, the Kp at 8 h in data set [3] is above 164.
On to `Cn1c(C(=O)O)cnc1CN1CC[C@H](n2c(=O)n(-c3ccc(-c4ccccc4)cc3)c3cccnc32)C1` [Example 86, (S)-2-((3-(1-([1,1′-Biphenyl]-4-yl)-2-oxo-1,2-dihydro-3H-imidazo[4,5-b]pyridin-3-yl)pyrrolidin-1-yl)methyl)-1-methyl-1H-imidazole-5-carboxylic acid], for which the negative logarithm of the IC50 (pIC50) in data set [1] was 6.57.
As to `Cn1c(C(=O)O)cnc1CN1CC[C@H](n2c(=O)n(-c3ccccc3)c3cccnc32)C1` [Example 87, (S)-1-Methyl-2-((3-(2-oxo-1-phenyl-1,2-dihydro-3H-imidazo[4,5-b]pyridin-3-yl)pyrrolidin-1-yl)methyl)-1H-imidazole-5-carboxylic acid], the negative logarithm of the IC50 (pIC50) in data set [1] was 5.40.
Same read-out and setting: the value for `Cn1c(C(=O)O)cnc1CN1CC[C@@H](n2c(=O)n(-c3ccc(-c4ccc(C(=O)O)cc4)nc3)c3cccnc32)C1` [Example 88, (R)-2-((3-(1-(6-(4-Carboxyphenyl)pyridin-3-yl)-2-oxo-1,2-dihydro-3H-imidazo[4,5-b]pyridin-3-yl)pyrrolidin-1-yl)methyl)-1-methyl-1H-imidazole-5-carboxylic acid] was 6.57; that for `Cc1cccnc1CN1CC[C@H](n2c(=O)n(-c3ccc(-c4ccc(O)cc4)cc3)c3cccnc32)C1` [Example 89, (S)-1-(4′-Hydroxy-[1,1′-biphenyl]-4-yl)-3-(1-((3-methylpyridin-2-yl)methyl)pyrrolidin-3-yl)-1,3-dihydro-2H-imidazo[4,5-b]pyridin-2-one] was 5.50; that for `Cc1cccnc1CN1CC[C@H](n2c(=O)n(-c3ccc(-c4ccncc4)cc3)c3cccnc32)C1` [Example 90, (S)-3-(1-((3-Methylpyridin-2-yl)methyl)pyrrolidin-3-yl)-1-(4-(pyridin-4-yl)phenyl)-1,3-dihydro-2H-imidazo[4,5-b]pyridin-2-one] was 5.13.

What is called pIC50 is the IC50 on a negative log10 scale, so that one unit is a factor of ten. A higher pIC50 goes with a low IC50.
